Laboratory results taken from ChEMBL document CHEMBL5233257, “Anticancer property of ginsenoside Rh2 from ginseng” (Eur J Med Chem, 2020).
pEC50, pIC50: −log10 of the molar value. Values after ≈ are worked out from the molar mass of the structure shown.

How the values were obtained:
HepG2 [1] = experiment: Induction of apoptosis in human HepG2 cells incubated for 72 hrs; type: functional, cell-based; conditions: HepG2, 72 h
HepG2 [2] = experiment: Induction of apoptosis in human HepG2 cells incubated for 24 hrs; type: functional, cell-based; conditions: HepG2, 24 h
HepG2 [3] = experiment: Induction of apoptosis in human HepG2 cells incubated for 48 hrs by PI/Annexin V-FITC analysis; type: functional, cell-based; conditions: HepG2, 48 h
HepG2 [4] = experiment: Induction of apoptosis in human HepG2 cells incubated for 72 hrs by PI/Annexin V-FITC analysis; type: functional, cell-based; conditions: HepG2, 72 h
HepG2 [5] = experiment: Induction of apoptosis in human HepG2 beta-catenin cells incubated for 48 hrs by PI/Annexin V-FITC analysis; type: functional, cell-based; conditions: HepG2, 48 h
HepG2 [6] = experiment: Induction of apoptosis in human HepG2 beta-catenin cells incubated for 72 hrs by PI/Annexin V-FITC analysis; type: functional, cell-based; conditions: HepG2, 72 h
HepG2 [7] = experiment: Induction of cell death in human HepG2 cells assessed as lethal dose; type: functional; conditions: read-out: LD50 (the source's name)
HCT-116 [8] = experiment: Induction of cell death in human HCT-116 cells incubated for 48 hrs by trypan blue staining based analysis; type: functional; conditions: HCT-116, 48 h
SW480 [9] = experiment: Induction of cell death in human SW480 cells incubated for 48 hrs by trypan blue staining based analysis; type: functional; conditions: SW480, 48 h
HL-60 [10] = experiment: Induction of apoptosis in human HL-60 cells assessed as reduction in cell viability incubated for 72 hrs by CCK-8 assay; type: functional, cell-based; conditions: HL-60, 72 h
Kasumi 1 = experiment: Induction of apoptosis in human Kasumi 1 cells assessed as reduction in cell viability incubated for 72 hrs by CCK-8 assay; type: functional, cell-based; conditions: Kasumi 1, 72 h
HL-60 [11] = experiment: Induction of apoptosis in human HL-60 cells; type: functional, cell-based
HL-60 [12] = experiment: Cytotoxicity against human HL-60 cells measured after 24 hrs by MTT assay; type: functional, cell-based; conditions: HL-60, 24 h
U-937 = experiment: Cytotoxicity against human U-937 cells measured after 24 hrs by MTT assay; type: functional, cell-based; conditions: U-937, 24 h
THP-1 = experiment: Induction of apoptosis in human THP-1 cells; type: functional, cell-based
K562 = experiment: Cytotoxicity against human K562 cells incubated for 48 hrs by CCK-8 assay; type: functional, cell-based; conditions: K562, 48 h
KG-1 [13] = experiment: Cytotoxicity against human KG-1 alpha cells incubated for 48 hrs by CCK-8 assay; type: functional, cell-based; conditions: KG-1, 48 h
KG-1 [14] = experiment: Cytotoxicity against human KG-1 alpha cells; type: functional, cell-based
REH = experiment: Induction of apoptosis in human REH cells; type: functional, cell-based
Jurkat = experiment: Induction of apoptosis in human Jurkat cells; type: functional, cell-based
[15] = Inhibition of proliferation in human Jurkat cells assessed as reduction in cell viability incubated for 48 hrs by CCK-8 assay; type: functional, cell-based
HeLa = experiment: Induction of apoptosis in human HeLa cells incubated for 2 hrs by fluorescence microscopic analysis; type: functional, cell-based
SK-HEP1 = experiment: Induction of apoptosis in human SK-HEP1 cells incubated for 2 hrs by fluorescence microscopic analysis; type: functional, cell-based; conditions: SK-HEP1, 2 h
SW480 [16] = experiment: Induction of apoptosis in human SW480 cells incubated for 2 hrs by fluorescence microscopic analysis; type: functional, cell-based; conditions: SW480, 2 h
PC-3 [17] = experiment: Antiproliferative activity against human PC-3 cells; type: functional, cell-based
HCT-116 [18] = experiment: Cytotoxicity against human HCT-116 assessed as reduction in cell viability by MTT assay; type: functional, cell-based
LNCaP [19] = experiment: Antiproliferative activity against human LNCaP cells incubated for 3 days; type: functional, cell-based; conditions: 72 h
PC-3 [20] = experiment: Antiproliferative activity against human PC-3 cells incubated for 3 days; type: functional, cell-based; conditions: PC-3, 72 h
DU-145 = experiment: Antiproliferative activity against human DU-145 cells incubated for 3 days; type: functional, cell-based; conditions: DU-145, 72 h
LNCaP [21] = experiment: Antiproliferative activity against human LNCaP cells; type: functional, cell-based
MDA-MB-231 [22] = experiment: Induction of apoptosis in human MDA-MB-231 cells assessed as inhibition of cell viability; type: functional, cell-based
MCF7 [23] = experiment: Induction of apoptosis in human MCF7 cells assessed as inhibition of cell viability; type: functional, cell-based
MDA-MB-231 [24] = experiment: Antiproliferative activity against human MDA-MB-231 cells; type: functional, cell-based
MCF7 [25] = experiment: Antiproliferative activity against human MCF7 cells; type: functional, cell-based
A549 = experiment: Antiproliferative activity against human A549 cells; type: functional, cell-based
[26] = Cytotoxicity against human HRA cells assessed as reduction in cell viability measured after 5 days by crystal violet staining based analysis; type: functional; conditions: 120 h
[27] = Cytotoxicity against human KK cells assessed as reduction in cell viability measured after 5 days by crystal violet staining based analysis; type: functional; conditions: 120 h
[28] = Cytotoxicity against human KF cells assessed as reduction in cell viability measured after 5 days by crystal violet staining based analysis; type: functional; conditions: 120 h
[29] = Cytotoxicity against human KFR cells assessed as reduction in cell viability measured after 5 days by crystal violet staining based analysis; type: functional; conditions: 120 h
B16-F10 = experiment: Induction of cell death in mouse B16-F10 cells; type: functional, cell-based
MDA-MB-231 [30] = experiment: Induction of cell death in human MDA-MB-231 cells; type: functional, cell-based
Huh-7 = experiment: Induction of cell death in human Huh-7 cells; type: functional, cell-based
B16 = experiment: Growth inhibition of mouse B16 cells; type: functional, cell-based
[31] = Induction of apoptosis in human HK-1 cells; type: functional, cell-based

Structure (SMILES): CC(C)=CCC[C@](C)(O)[C@H]1CC[C@]2(C)[C@@H]1[C@H](O)C[C@@H]1[C@@]3(C)CC[C@H](O[C@@H]4O[C@H](CO)[C@@H](O)[C@H](O)[C@H]4O)C(C)(C)[C@@H]3CC[C@]12C [GINSENOSIDE RH2]
- IC50 (HepG2 [1]): 1.65 µg/mL (≈ 2.65 µM)
- pIC50 (HepG2 [2]): 4.38
- pIC50 (HepG2 [3]): 4.00
- pIC50 (HepG2 [4]): 4.24
- pIC50 (HepG2 [5]): 3.89
- pIC50 (HepG2 [6]): 4.08
- CC50 (HepG2 [7]): 10 µM
- pIC50 (HCT-116 [8]): 4.46
- pIC50 (SW480 [9]): 4.46
- pIC50 (HL-60 [10]): 4.59
- pIC50 (Kasumi 1): 4.22
- pIC50 (HL-60 [11]): 4.60
- pIC50 (HL-60 [12]): 4.42
- pIC50 (U-937): 4.42
- IC50 (THP-1): 15 µg/mL (≈ 24.1 µM)
- CC50 (THP-1; read-out: LC50 (the source's name)): 15 µg/mL (≈ 24.1 µM)
- pIC50 (K562): 4.22
- pIC50 (KG-1 [13]): 4.22
- pIC50 (KG-1 [14]): 4.12
- pIC50 (REH): 4.40
- pIC50 (Jurkat): 4.46
- pIC50 [15]: 4.46
- IC50 (HeLa): 2.52 µg/mL (≈ 4.05 µM)
- IC50 (SK-HEP1): 3.15 µg/mL (≈ 5.06 µM)
- IC50 (SW480 [16]): 4.06 µg/mL (≈ 6.52 µM)
- pEC50 (PC-3 [17]): 5.26
- pIC50 (HCT-116 [18]): 4.71
- pIC50 (LNCaP [19]): 4.77
- pIC50 (PC-3 [20]): 4.46
- pIC50 (DU-145): 4.42
- pEC50 (LNCaP [21]): 5.36
- pIC50 (MDA-MB-231 [22]): 4.30
- pIC50 (MCF7 [23]): 4.30
- pEC50 (MDA-MB-231 [24]): 4.24
- pEC50 (MCF7 [25]): 4.28
- IC50 (A549): 28.5 µg/mL (≈ 45.8 µM)
- pIC50 [26]: 4.52
- pIC50 [27]: 4.35
- pIC50 [28]: 4.40
- pIC50 [29]: 4.39
- pIC50 (B16-F10): 4.45
- pIC50 (MDA-MB-231 [30]): 4.40
- pIC50 (Huh-7): 4.41
- IC50 (B16): 4.1 µg/mL (≈ 6.58 µM)
- pIC50 [31]: 4.92
